According to the supplement of paper PMC10307832:

What was measured:
Experiment in all cases: relative viability (nuclei count vs DMSO), 5 days (fraction); higher = more cells survive
NCI-H727 = tested on: NCI-H727
How it was run: (§1)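 Each reported value is a median over duplicate plates. It expresses relative viability: treated-well nuclei count divided by vehicle-well nuclei count. Lung cancer cell lines in 1536-well plates were dosed by pin tool a day after seeding, alone with one drug or with a fixed anchor-drug dose plus five library-drug doses (not always all listed) in √10 steps, and nuclei were counted after 5 days.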

PC-3 [JPC-3] = tested on: PC-3 [JPC-3]
How it was run: as §1

NCI-H1650 = tested on: NCI-H1650
How it was run: as §1

NCI-H2087 = tested on: NCI-H2087
How it was run: as §1

NCI-H1651 = tested on: NCI-H1651
How it was run: as §1

NCI-H441 = tested on: NCI-H441
How it was run: as §1

NCI-H2023 = tested on: NCI-H2023
How it was run: as §1

201T = tested on: 201T
How it was run: as §1

NCI-H460 = tested on: NCI-H460
How it was run: as §1

NCI-H1915 = tested on: NCI-H1915
How it was run: as §1

H3255 = tested on: H3255
How it was run: as §1

CAL-12T = tested on: CAL-12T
How it was run: as §1

LC-2-ad = tested on: LC-2-ad
How it was run: as §1

BEN = tested on: BEN
How it was run: as §1

LCLC-97TM1 = tested on: LCLC-97TM1
How it was run: as §1

NCI-H1944 = tested on: NCI-H1944
How it was run: as §1

NCI-H520 = tested on: NCI-H520
How it was run: as §1

A-427 = tested on: A-427
How it was run: as §1

NCI-H596 = tested on: NCI-H596
How it was run: as §1

CCN(CC)CCCCNc1ncc2cc(-c3cc(OC)cc(OC)c3)c(NC(=O)NC(C)(C)C)nc2n1 + CC1(C)CCC(c2ccc(Cl)cc2)=C(CN2CCN(c3ccc(C(=O)NS(=O)(=O)c4ccc(N[C@H](CCN5CCOCC5)CSc5ccccc5)c(S(=O)(=O)C(F)(F)F)c4)cc3)CC2)C1 [Navitoclax] (partner 0.5 µM)
relative viability (NCI-H727; first compound 0.01 µM): 0.443 | relative viability (NCI-H727; first compound 0.03162 µM): 0.336 | relative viability (NCI-H727; first compound 0.1 µM): 0.428 | relative viability (NCI-H727; first compound 0.3162 µM): 0.454 | relative viability (NCI-H727; first compound 1 µM): 0.387 | relative viability (PC-3 [JPC-3]; first compound 0.01 µM): 0.827 | relative viability (PC-3 [JPC-3]; first compound 0.03162 µM): 0.785 | relative viability (PC-3 [JPC-3]; first compound 0.1 µM): 0.855 | relative viability (PC-3 [JPC-3]; first compound 0.3162 µM): 0.951 | relative viability (PC-3 [JPC-3]; first compound 1 µM): 1.02 | relative viability (NCI-H1650; first compound 0.01 µM): 1.12 | relative viability (NCI-H1650; first compound 0.03162 µM): 1.03 | relative viability (NCI-H1650; first compound 0.1 µM): 1.17 | relative viability (NCI-H1650; first compound 0.3162 µM): 0.784 | relative viability (NCI-H1650; first compound 1 µM): 0.7 | relative viability (NCI-H2087; first compound 0.01 µM): 1.15 | relative viability (NCI-H2087; first compound 0.03162 µM): 1.12 | relative viability (NCI-H2087; first compound 0.1 µM): 1.35 | relative viability (NCI-H2087; first compound 0.3162 µM): 1.23 | relative viability (NCI-H2087; first compound 1 µM): 0.986 | relative viability (NCI-H1651; first compound 0.01 µM): 0.983 | relative viability (NCI-H1651; first compound 0.03162 µM): 1.09 | relative viability (NCI-H1651; first compound 0.1 µM): 1.25 | relative viability (NCI-H1651; first compound 0.3162 µM): 1.23 | relative viability (NCI-H1651; first compound 1 µM): 1.03 | relative viability (NCI-H441; first compound 0.01 µM): 0.547 | relative viability (NCI-H441; first compound 0.03162 µM): 0.714 | relative viability (NCI-H441; first compound 0.1 µM): 1.2 | relative viability (NCI-H441; first compound 0.3162 µM): 0.827 | relative viability (NCI-H441; first compound 1 µM): 0.618 | relative viability (NCI-H2023; first compound 0.01 µM): 1.04 | relative viability (NCI-H2023; first compound 0.03162 µM): 0.997 | relative viability (NCI-H2023; first compound 0.1 µM): 1 | relative viability (NCI-H2023; first compound 0.3162 µM): 1.04 | relative viability (NCI-H2023; first compound 1 µM): 0.823 | relative viability (201T; first compound 0.01 µM): 1.17 | relative viability (201T; first compound 0.03162 µM): 1.21 | relative viability (201T; first compound 0.1 µM): 1.24 | relative viability (201T; first compound 0.3162 µM): 1.23 | relative viability (201T; first compound 1 µM): 1.19 | relative viability (NCI-H460; first compound 0.01 µM): 1.3 | relative viability (NCI-H460; first compound 0.03162 µM): 1.18 | relative viability (NCI-H460; first compound 0.3162 µM): 1.21 | relative viability (NCI-H460; first compound 1 µM): 1.09 | relative viability (NCI-H1915; first compound 0.01 µM): 0.826 | relative viability (NCI-H1915; first compound 0.03162 µM): 0.795 | relative viability (NCI-H1915; first compound 0.1 µM): 0.838 | relative viability (NCI-H1915; first compound 0.3162 µM): 0.749 | relative viability (NCI-H1915; first compound 1 µM): 0.805 | relative viability (H3255; first compound 0.01 µM): 0.496 | relative viability (H3255; first compound 0.03162 µM): 0.413 | relative viability (H3255; first compound 0.1 µM): 0.65 | relative viability (H3255; first compound 0.3162 µM): 0.729 | relative viability (H3255; first compound 1 µM): 0.502 | relative viability (CAL-12T; first compound 0.01 µM): 1.43 | relative viability (CAL-12T; first compound 0.03162 µM): 1.12 | relative viability (CAL-12T; first compound 0.1 µM): 1.22 | relative viability (CAL-12T; first compound 0.3162 µM): 1.42 | relative viability (CAL-12T; first compound 1 µM): 1.19 | relative viability (LC-2-ad; first compound 0.01 µM): 0.425 | relative viability (LC-2-ad; first compound 0.03162 µM): 0.372 | relative viability (LC-2-ad; first compound 0.1 µM): 0.558 | relative viability (LC-2-ad; first compound 0.3162 µM): 0.511 | relative viability (LC-2-ad; first compound 1 µM): 0.487 | relative viability (BEN; first compound 0.01 µM): 0.0624 | relative viability (BEN; first compound 0.03162 µM): 0.0641 | relative viability (BEN; first compound 0.1 µM): 0.0454 | relative viability (BEN; first compound 0.3162 µM): 0.0573 | relative viability (BEN; first compound 1 µM): 0.0385 | relative viability (LCLC-97TM1; first compound 0.03162 µM): 0.356 | relative viability (LCLC-97TM1; first compound 0.1 µM): 0.503 | relative viability (LCLC-97TM1; first compound 0.3162 µM): 0.435 | relative viability (LCLC-97TM1; first compound 1 µM): 0.4 | relative viability (NCI-H1944; first compound 0.01 µM): 1.18 | relative viability (NCI-H1944; first compound 0.03162 µM): 1.02 | relative viability (NCI-H1944; first compound 0.1 µM): 1.08 | relative viability (NCI-H1944; first compound 0.3162 µM): 1.09 | relative viability (NCI-H1944; first compound 1 µM): 1.02 | relative viability (NCI-H520; first compound 0.01 µM): 1.08 | relative viability (NCI-H520; first compound 0.03162 µM): 1.08 | relative viability (NCI-H520; first compound 0.1 µM): 1.31 | relative viability (NCI-H520; first compound 0.3162 µM): 1.09 | relative viability (NCI-H520; first compound 1 µM): 0.419 | relative viability (A-427; first compound 0.01 µM): 0.991 | relative viability (A-427; first compound 0.03162 µM): 1.03 | relative viability (A-427; first compound 0.1 µM): 1.11 | relative viability (A-427; first compound 0.3162 µM): 1.08 | relative viability (A-427; first compound 1 µM): 0.908 | relative viability (NCI-H596; first compound 0.01 µM): 0.912 | relative viability (NCI-H596; first compound 0.03162 µM): 1.02 | relative viability (NCI-H596; first compound 0.1 µM): 0.919 | relative viability (NCI-H596; first compound 0.3162 µM): 0.797 | relative viability (NCI-H596; first compound 1 µM): 0.656
